Results published in publication PMC5218480 (PLoS ONE, 2017).

Test system: MV-4-11 cells
Assay: Gene expression microarray analysis (Affymetrix PrimeView) and GSEA
Assay type: cell-based, human
Design: RFU PODN (11730768_x_at) / Fold change /veh PODN (11730768_x_at) / RFU LINC00158 (11744669_a_at) / Fold change /veh LINC00158 (11744669_a_at) / RFU DUSP10 (11751237_a_at) / Fold change /veh DUSP10 (11751237_a_at) / RFU ID3 (11757404_x_at) / Fold change /veh ID3 (11757404_x_at) / RFU PLEKHG5 (11737974_s_at) / Fold change /veh PLEKHG5 (11737974_s_at) / RFU LRRC4B (11730491_at) / Fold change /veh LRRC4B (11730491_at) / RFU GIMAP4 (11747438_a_at) / Fold change /veh GIMAP4 (11747438_a_at) / RFU KRT8 (11758183_x_at) / Fold change /veh KRT8 (11758183_x_at) / RFU CNN1 (11734310_a_at) / Fold change /veh CNN1 (11734310_a_at) / RFU VPS37D (11726825_at) / Fold change /veh VPS37D (11726825_at) / RFU C10orf10 (11716522_x_at) / Fold change /veh C10orf10 (11716522_x_at) / RFU KIR2DL2 /// KIR2DL4 /// KIR2DL5A /// KIR2DL5B /// KIR2DS1 /// KIR2DS2 /// KIR2DS3 /// KIR2DS4 /// KIR3DL3 /// KIR3DL3 /// KIR3DS1 (11738374_at) / Fold change /veh KIR2DL2 /// KIR2DL4 /// KIR2DL5A /// KIR2DL5B /// KIR2DS1 /// KIR2DS2 /// KIR2DS3 /// KIR2DS4 /// KIR3DL3 /// KIR3DL3 /// KIR3DS1 (11738374_at) / RFU C1QL1 (11718748_at) / Fold change /veh C1QL1 (11718748_at) / RFU TMPRSS4 (11747572_a_at) / Fold change /veh TMPRSS4 (11747572_a_at) / RFU HAMP (11756126_x_at) / Fold change /veh HAMP (11756126_x_at) / RFU RNFT2 (11725882_a_at) / Fold change /veh RNFT2 (11725882_a_at) / RFU NR4A2 (11747474_a_at) / Fold change /veh NR4A2 (11747474_a_at) / RFU ABCC12 (11746883_a_at) / Fold change /veh ABCC12 (11746883_a_at) / RFU TMEM136 (11760407_x_at) / Fold change /veh TMEM136 (11760407_x_at) / RFU CLDN22 /// WWC2 (11732394_at) / Fold change /veh CLDN22 /// WWC2 (11732394_at) / RFU HLA-DPB1 (11760878_x_at) / Fold change /veh HLA-DPB1 (11760878_x_at) / RFU SPINT1 (11716480_a_at) / Fold change /veh SPINT1 (11716480_a_at) / RFU GAP43 (11754022_s_at) / Fold change /veh GAP43 (11754022_s_at) / RFU A4GNT (11735810_at) / Fold change /veh A4GNT (11735810_at) / RFU PRB3 (11715151_x_at) / Fold change /veh PRB3 (11715151_x_at) / RFU TUBB4B (11761932_at) / Fold change /veh TUBB4B (11761932_at) / RFU CAPN14 (11732068_a_at) / Fold change /veh CAPN14 (11732068_a_at) / RFU TMCC2 (11721928_a_at) / Fold change /veh TMCC2 (11721928_a_at) / RFU IRGQ (11745062_a_at) / Fold change /veh IRGQ (11745062_a_at) / RFU FAM174B (11720279_a_at) / Fold change /veh FAM174B (11720279_a_at) / RFU TMPRSS4 (11748680_a_at) / Fold change /veh TMPRSS4 (11748680_a_at) / RFU FAM212B (11763350_a_at) / Fold change /veh FAM212B (11763350_a_at) / RFU PLEKHG5 (11743358_a_at) / Fold change /veh PLEKHG5 (11743358_a_at) / RFU ZSCAN30 (11745921_a_at) / Fold change /veh ZSCAN30 (11745921_a_at) / RFU CMKLR1 (11741424_a_at) / Fold change /veh CMKLR1 (11741424_a_at) / RFU LOC101060620 /// MAPK8IP1 (11723275_at) / Fold change /veh LOC101060620 /// MAPK8IP1 (11723275_at) / RFU SPTSSB (11747773_x_at) / Fold change /veh SPTSSB (11747773_x_at) / RFU PRSS12 (11739890_at) / Fold change /veh PRSS12 (11739890_at) / RFU BIN1 (11741810_x_at) / Fold change /veh BIN1 (11741810_x_at) / RFU WNT11 (11732464_a_at) / Fold change /veh WNT11 (11732464_a_at) / RFU C10orf10 (11716521_a_at) / Fold change /veh C10orf10 (11716521_a_at) / RFU C5orf56 (11738089_at) / Fold change /veh C5orf56 (11738089_at) / RFU CYB561 (11721691_x_at) / Fold change /veh CYB561 (11721691_x_at) / RFU ANKRD19P (11752326_a_at) / Fold change /veh ANKRD19P (11752326_a_at) / RFU OR2T12 /// OR2T33 /// OR2T8 (11738714_s_at) / Fold change /veh OR2T12 /// OR2T33 /// OR2T8 (11738714_s_at) / RFU VCAN (11748164_a_at) / Fold change /veh VCAN (11748164_a_at) / RFU JSRP1 (11732532_at) / Fold change /veh JSRP1 (11732532_at) / RFU KRTAP10-11 (11738290_x_at) / Fold change /veh KRTAP10-11 (11738290_x_at) / RFU MYO3A (11730013_a_at) / Fold change /veh MYO3A (11730013_a_at) / RFU EBF3 (11725865_a_at) / Fold change /veh EBF3 (11725865_a_at) / RFU CAMK2N1 (11719241_x_at) / Fold change /veh CAMK2N1 (11719241_x_at) / RFU C5orf56 (11738088_a_at) / Fold change /veh C5orf56 (11738088_a_at) / RFU OLFML3 (11715873_a_at) / Fold change /veh OLFML3 (11715873_a_at) / RFU LOC100653217 /// NTM (11731650_a_at) / Fold change /veh LOC100653217 /// NTM (11731650_a_at) / RFU MAPK11 (11762145_a_at) / Fold change /veh MAPK11 (11762145_a_at) / RFU FIZ1 (11724087_x_at) / Fold change /veh FIZ1 (11724087_x_at) / RFU OASL (11726364_x_at) / Fold change /veh OASL (11726364_x_at) / RFU SOX15 (11748057_x_at) / Fold change /veh SOX15 (11748057_x_at) / RFU CD79A (11719716_a_at) / Fold change /veh CD79A (11719716_a_at) / RFU HIST1H1D (11736915_at) / Fold change /veh HIST1H1D (11736915_at) / RFU CASKIN2 (11723855_a_at) / Fold change /veh CASKIN2 (11723855_a_at) / RFU LOC730098 (11760151_x_at) / Fold change /veh LOC730098 (11760151_x_at) / RFU OR4N2 (11742367_at) / Fold change /veh OR4N2 (11742367_at) / RFU PRRT2 (11749266_a_at) / Fold change /veh PRRT2 (11749266_a_at) / RFU SNX32 (11753110_a_at) / Fold change /veh SNX32 (11753110_a_at) / RFU CDHR5 (11726645_a_at) / Fold change /veh CDHR5 (11726645_a_at) / RFU RCAN1 (11760418_a_at) / Fold change /veh RCAN1 (11760418_a_at) / RFU FAM167A (11723789_a_at) / Fold change /veh FAM167A (11723789_a_at) / RFU FAM26E (11764081_at) / Fold change /veh FAM26E (11764081_at) / RFU ISYNA1 (11749810_s_at) / Fold change /veh ISYNA1 (11749810_s_at) / RFU ACY1 (11761880_at) / Fold change /veh ACY1 (11761880_at) / RFU 11764098_at / Fold change /veh 11764098_at / RFU SAMD14 (11745864_x_at) / Fold change /veh SAMD14 (11745864_x_at) / RFU NPB (11741838_a_at) / Fold change /veh NPB (11741838_a_at) / RFU TMPRSS6 (11731388_a_at) / Fold change /veh TMPRSS6 (11731388_a_at) / RFU KRTAP10-2 (11738614_at) / Fold change /veh KRTAP10-2 (11738614_at) / RFU ARHGAP8 /// PRR5-ARHGAP8 (11727945_x_at) / Fold change /veh ARHGAP8 /// PRR5-ARHGAP8 (11727945_x_at) / RFU KRTAP5-7 /// NADSYN1 (11734609_at) / Fold change /veh KRTAP5-7 /// NADSYN1 (11734609_at) / RFU RASL12 (11751679_a_at) / Fold change /veh RASL12 (11751679_a_at) / RFU CDKN2B (11736163_a_at) / Fold change /veh CDKN2B (11736163_a_at) / RFU PRF1 (11729649_at) / Fold change /veh PRF1 (11729649_at) / RFU, ZNF638 /// ZNF638-IT1 / Fold change vs veh, ZNF638 /// ZNF638-IT1 / RFU, PANK3 / Fold change vs veh, PANK3 / RFU, SH3YL1 / Fold change vs veh, SH3YL1 / RFU, ZEB2 / Fold change vs veh, ZEB2 / RFU, NRIP1 / Fold change vs veh, NRIP1 / RFU, PTTG1IP / Fold change vs veh, PTTG1IP / RFU, CAPN2 / Fold change vs veh, CAPN2 / RFU, MED14 / Fold change vs veh, MED14 / RFU, SNORA58 / Fold change vs veh, SNORA58 / RFU, C1orf63 / Fold change vs veh, C1orf63 / RFU, LRRFIP1 / Fold change vs veh, LRRFIP1 / RFU, NDUFAF7 / Fold change vs veh, NDUFAF7 / RFU, SLC12A2 / Fold change vs veh, SLC12A2 / RFU, IBTK / Fold change vs veh, IBTK / RFU, ESF1 / Fold change vs veh, ESF1 / Fold change vs veh, TMEM50B / RFU, TAOK1 / Fold change vs veh, TAOK1 / RFU, ACBD3 / Fold change vs veh, ACBD3 / RFU, TMA16 / Fold change vs veh, TMA16 / RFU, RWDD3 / Fold change vs veh, RWDD3 / RFU, BCAT1 / Fold change vs veh, BCAT1 / RFU, EDEM3 / Fold change vs veh, EDEM3 / RFU, TMEM33 / Fold change vs veh, TMEM33 / RFU, WDR75 / Fold change vs veh, WDR75 / RFU, AHCTF1 / Fold change vs veh, AHCTF1 / RFU, TFRC / Fold change vs veh, TFRC / RFU, ZDHHC17 / Fold change vs veh, ZDHHC17 / RFU, NOM1 / Fold change vs veh, NOM1 / RFU, ARL8B / Fold change vs veh, ARL8B / RFU, ZBTB11 / Fold change vs veh, ZBTB11 / RFU, TAMM41 / Fold change vs veh, TAMM41 / RFU, KIAA1704 /// LOC100996395 / Fold change vs veh, KIAA1704 /// LOC100996395 / RFU, ING1 / Fold change vs veh, ING1 / RFU, TRMT61B / Fold change vs veh, TRMT61B / RFU, FUBP3 / Fold change vs veh, FUBP3 / RFU, TP53 / Fold change vs veh, TP53 / RFU, TNKS2 / Fold change vs veh, TNKS2 / RFU, ZFP14 / Fold change vs veh, ZFP14 / RFU, ACTR2 / Fold change vs veh, ACTR2 / RFU, PPP3R1 / Fold change vs veh, PPP3R1 / RFU, PIK3R1 / Fold change vs veh, PIK3R1 / RFU, HNRNPA1 / Fold change vs veh, HNRNPA1 / RFU, RNF170 / Fold change vs veh, RNF170 / RFU, ZNF28 / Fold change vs veh, ZNF28 / RFU, RNGTT / Fold change vs veh, RNGTT / RFU, OGT / Fold change vs veh, OGT / RFU, BRD1 / Fold change vs veh, BRD1 / RFU, MARS / Fold change vs veh, MARS / RFU, ZNF655 / Fold change vs veh, ZNF655 / RFU, FAHD1 / Fold change vs veh, FAHD1 / RFU, BDP1 / Fold change vs veh, BDP1 / RFU, LRRCC1 / Fold change vs veh, LRRCC1 / RFU, ARID1A / Fold change vs veh, ARID1A / RFU, ZNF146 / Fold change vs veh, ZNF146 / RFU, ZNF330 / Fold change vs veh, ZNF330 / RFU, GPN3 / Fold change vs veh, GPN3 / RFU, C9orf123 / Fold change vs veh, C9orf123 / RFU, N4BP2L2 / Fold change vs veh, N4BP2L2 / RFU, ARFIP1 / Fold change vs veh, ARFIP1 / RFU, FAM179B / Fold change vs veh, FAM179B / RFU, BCL10 / Fold change vs veh, BCL10 / RFU, UHRF1BP1L / Fold change vs veh, UHRF1BP1L / RFU, BET1 / Fold change vs veh, BET1 / RFU, CNOT2 / Fold change vs veh, CNOT2 / RFU, ZNF268 / Fold change vs veh, ZNF268 / Fold change vs veh, ZNF507 / RFU, DGCR2 / Fold change vs veh, DGCR2 / RFU, WDSUB1 / Fold change vs veh, WDSUB1 / Fold change vs veh, HSP90B1 /// MIR3652 / RFU, ADSS / Fold change vs veh, ADSS / RFU, GK / Fold change vs veh, GK / RFU, ZNF148 / Fold change vs veh, ZNF148 / RFU, TAF9 / Fold change vs veh, TAF9 / RFU, SLC1A5 / Fold change vs veh, SLC1A5 / RFU, SLMO2 / Fold change vs veh, SLMO2 / RFU, ABCC4 / Fold change vs veh, ABCC4 / RFU, LOC101060439 /// RAP1B / Fold change vs veh, LOC101060439 /// RAP1B / RFU, RFX7 / Fold change vs veh, RFX7 / RFU, GTPBP10 / Fold change vs veh, GTPBP10 / RFU, CNEP1R1 / Fold change vs veh, CNEP1R1 / RFU, BIVM-ERCC5 /// ERCC5 / Fold change vs veh, BIVM-ERCC5 /// ERCC5 / RFU, ILF3 / Fold change vs veh, ILF3 / RFU 11762660_at / Fold change /veh 11762660_at / RFU VCAN (11757783_s_at) / Fold change /veh VCAN (11757783_s_at) / RFU DDX43 (11728927_at) / Fold change /veh DDX43 (11728927_at) / RFU KRT8 (11758188_x_at) / Fold change /veh KRT8 (11758188_x_at) / RFU NKD1 (11759106_at) / Fold change /veh NKD1 (11759106_at) / RFU SRD5A1 (11742802_a_at) / Fold change /veh SRD5A1 (11742802_a_at) / RFU TPSAB1 /// TPSB2 (11721975_s_at) / Fold change /veh TPSAB1 /// TPSB2 (11721975_s_at) / RFU GSTM3 (11746129_a_at) / Fold change /veh GSTM3 (11746129_a_at) / RFU IL23R (11737362_x_at) / Fold change /veh IL23R (11737362_x_at) / RFU TMEM51 (11727254_a_at) / Fold change /veh TMEM51 (11727254_a_at) / RFU PIWIL2 (11732686_x_at) / Fold change /veh PIWIL2 (11732686_x_at) / RFU ORM1 (11744905_x_at) / Fold change /veh ORM1 (11744905_x_at) / RFU CCDC152 (11743942_at) / Fold change /veh CCDC152 (11743942_at) / RFU ECM1 (11717891_a_at) / Fold change /veh ECM1 (11717891_a_at) / RFU IL23R (11748794_a_at) / Fold change /veh IL23R (11748794_a_at) / RFU TNFAIP8L3 (11732012_x_at) / Fold change /veh TNFAIP8L3 (11732012_x_at) / RFU MBOAT4 (11741988_at) / Fold change /veh MBOAT4 (11741988_at) / RFU 11764193_at / Fold change /veh 11764193_at / RFU TMEM53 (11763286_at) / Fold change /veh TMEM53 (11763286_at) / RFU MAGEB2 (11727129_at) / Fold change /veh MAGEB2 (11727129_at) / RFU TMEM200A (11744735_a_at) / Fold change /veh TMEM200A (11744735_a_at) / RFU CCDC152 (11751479_a_at) / Fold change /veh CCDC152 (11751479_a_at) / RFU FAM211A (11726209_a_at) / Fold change /veh FAM211A (11726209_a_at) / RFU RGS16 (11746705_a_at) / Fold change /veh RGS16 (11746705_a_at) / RFU VCAN (11755009_s_at) / Fold change /veh VCAN (11755009_s_at) / RFU RHOB (11743442_s_at) / Fold change /veh RHOB (11743442_s_at) / RFU RGS16 (11720943_a_at) / Fold change /veh RGS16 (11720943_a_at) / RFU RGS16 (11720944_at) / Fold change /veh RGS16 (11720944_at) / RFU, VPS4B / Fold change vs veh, VPS4B / RFU, CREB1 / Fold change vs veh, CREB1 / RFU, DNAJC13 / Fold change vs veh, DNAJC13 / RFU, GNAQ / Fold change vs veh, GNAQ / RFU, CDK5R1 / Fold change vs veh, CDK5R1 / RFU, ZRANB3 / Fold change vs veh, ZRANB3 / RFU, CUL4A / Fold change vs veh, CUL4A / RFU, CCNY / Fold change vs veh, CCNY / RFU, UFL1 / Fold change vs veh, UFL1 / RFU, COG3 / Fold change vs veh, COG3 / RFU, DIAPH2 / Fold change vs veh, DIAPH2 / RFU, SKA2 / Fold change vs veh, SKA2 / RFU, AFF3 / Fold change vs veh, AFF3 / RFU, LMF1 / Fold change vs veh, LMF1 / RFU, IPO11 / Fold change vs veh, IPO11 / RFU, DFFB / Fold change vs veh, DFFB / RFU, FOXP1 / Fold change vs veh, FOXP1 / RFU, CARD8 / Fold change vs veh, CARD8 / RFU, STRN3 / Fold change vs veh, STRN3 / RFU, ADK / Fold change vs veh, ADK / RFU, RASSF2 / Fold change vs veh, RASSF2 / RFU, WIPF1 / Fold change vs veh, WIPF1 / RFU, LARP1B / Fold change vs veh, LARP1B / RFU, RASA1 / Fold change vs veh, RASA1 / RFU, RB1 / Fold change vs veh, RB1 / RFU, PPFIA1 / Fold change vs veh, PPFIA1 / RFU, MAT2A / Fold change vs veh, MAT2A / RFU, CCT5 / Fold change vs veh, CCT5 / RFU, WDR92 / Fold change vs veh, WDR92 / RFU, CUX1 / Fold change vs veh, CUX1 / RFU, TTC7A / Fold change vs veh, TTC7A / RFU, TMEM135 / Fold change vs veh, TMEM135 / RFU, DEPTOR / Fold change vs veh, DEPTOR / RFU, CPM / Fold change vs veh, CPM / RFU, DNAJB6 / Fold change vs veh, DNAJB6 / RFU, CACNA2D3 / Fold change vs veh, CACNA2D3 / RFU, DTX4 / Fold change vs veh, DTX4 / RFU, TFCP2 / Fold change vs veh, TFCP2 / RFU, GMCL1 /// GMCL1P1 / Fold change vs veh, GMCL1 /// GMCL1P1 / RFU, AEBP2 / Fold change vs veh, AEBP2 / RFU, SNHG1 /// SNORD22 /// SNORD25 /// SNORD26 /// SNORD27 /// SNORD28 /// SNORD29 /// SNORD31 / Fold change vs veh, SNHG1 /// SNORD22 /// SNORD25 /// SNORD26 /// SNORD27 /// SNORD28 /// SNORD29 /// SNORD31 / Fold change (Aza/veh), C12orf56 (ProbeSet 11735607_a_at) / Fold change (ACY-1035/veh), C12orf56 (ProbeSet 11735607_a_at) / Fold change (Aza/veh), FGFR1OP (ProbeSet 11751329_s_at) / Fold change (ACY-1035/veh), FGFR1OP (ProbeSet 11751329_s_at) / Fold change (Aza/veh), VPS36 (ProbeSet 11739960_a_at) / Fold change (ACY-1035/veh), VPS36 (ProbeSet 11739960_a_at) / RFU SYPL1 (11715823_x_at) / Fold change /veh SYPL1 (11715823_x_at) / RFU IGFBP7 (11715501_s_at) / Fold change /veh IGFBP7 (11715501_s_at) / RFU REEP3 (11722064_at) / Fold change /veh REEP3 (11722064_at) / RFU IGLL1 (11728026_x_at) / Fold change /veh IGLL1 (11728026_x_at): dose or concentration left out as unconfirmed
Details: MV-4-11 cells, 48 hours

In the case of `Nc1ccc(-c2cccs2)cc1NC(=O)c1ccc2c(c1)cc(C1CC1)n2CCN1CCOCC1` [ACY-1035], the “Fold change /veh HIST1H1D (11736915_at)” value is reported as 0.94.
